According to patent US6528536B1, “Fungicidal mixtures” (BASF Aktiengesellschaft, priority 1997, dated 2003):

System: powdery mildew of wheat (Erysiphe graminis forma specialis tritici)
Assay: Activity against powdery mildew of wheat (protective spray on wheat seedlings, greenhouse)
Assay type: in vivo
Settings: evaluated after 7 days
Source text: The active ingredients, separately or together, were formulated as a 10% emulsion in a mixture of 70% by weight of cyclohexanone, 20% by weight of Nekanil® LN (Lutensol® AP6, wetting agent having emulsifying and dispersing action, based on ethoxylated alkylphenols) and 10% by weight of Emulphor® EL (Emulan® EL, emulsifier based on ethoxylated fatty alcohols) and diluted with water to give the desired concentration.
Leaves of wheat seedlings cv. “Fr{umlaut over (u )}hgold” which had been grown in pots were sprayed to runoff point with an aqueous preparation of active ingredient which had been made from a stock solution comprising 10% of active compound, 63% of cyclohexanone and 27% of emulsifier, and, 24 hours after the spray coating had dried on, were dusted with spores of powdery mildew of wheat (Erysiphe graminis forma specialis tritici). […] After 7 days, the extent of mildew development was determined visually in % infection of the total leaf area.
Evaluation was carried out by determining the infected leaf areas in percent. […] The efficacy (E) was calculated as follows using Abbot's formula: […]
The expected degrees of action of the mixtures of the active ingredients were determined using Colby's formula [R. S. Colby, Weeds 15, (1967) 20-22] and compared with the observed degrees of action. […]

## CO/N=C(/C(=O)OC)c1ccccc1COc1ccccc1C [Ia]
0.3 ppm active ingredient in the spray liquor
  Efficacy in % of the untreated contol: 0%
0.6 ppm active ingredient in the spray liquor
  Efficacy in % of the untreated contol: 0%
